# From article PMC9304322, “Targeting retinoic acid receptor alpha-corepressor interaction activates chaperone-mediated autophagy and protects against retinal degeneration” (Nature Communications, 2022)
# Several values for one entry are separate records, joined by “and”; a condition that tells them apart may be missing. Identical values can stand only once.
# Assays:
# [1] = test system: NIH3T3; test: Intracellular proteolysis of long half-life proteins; format: cell-based, mouse
# Experimental: Confluent cells were labelled with [^3H]leucine (2μCi/ml) (NEN-PerkinElmer Life Sciences) for 48 h and then extensively washed and maintained in medium with an excess of unlabeled leucine. Proteolysis was calculated from aliquots of the medium taken at different times and precipitated in trichloroacetic acid, as the amount of acid-precipitable radioactivity transformed to acid-soluble radioactivity at each time. Where indicated cell were treated during the chase with […] leupeptin (Sigma, #108975) and […] NH4Cl (to determine lysosomal degradation) or with 100 μm MRT 68921 dihydrochloride (Tocris, #5780) (to determine macroautophagy degradation).
# [2] = test system: neuroblastoma cell line N2a expressing the KFERQ-PS-Dendra reporter; test: CMA activity, KFERQ-PS-Dendra reporter in N2a cells; format: cell-based, mouse; design: CMA activity, mean (Fig. S2a): unit not given here
# Experimental: (§1) Cells were transduced with lentivirus carrying the KFERQ-PS-Dendra reporter as before. Cells were photoactivated by exposure to a 3.5 mA (current constant) light emitting diode (LED: Norlux, 405 nm) for 3 min and then plated in glass-bottom 96 well plates. At the desired times, cells were fixed with 4% PFA and imaged using high-content microscopy (Operetta system, Perkin Elmer). Images were quantified using the manufacturer’s software in a minimum of 1,200 cells in 9 independent fields per well. […] This was particularly important in the case of primary human cells where the efficiency of transduction was ~65%. To avoid confounding effects for drug-induced changes in cell volume or adherence to the plate that could bring a fraction of the cells per field outside of focus, we set a threshold to count only […] that have at least 1/10 of the average number of […] detected in the untreated wells for each cell type (3–4 puncta/cell in the case of NIH3T3 and N2a cells and 5 puncta/cell in primary human fibroblasts).
# [3] = test system: NIH3T3 stably expressing the KFERQ-PS-Dendra; test: CMA activity, KFERQ-PS-Dendra fluorescent reporter in NIH3T3 mouse fibroblasts; format: cell-based; design: CMA activity (Fig. 1d), MEAN / CMA activity (Fig. 1e-g), mean / CMA activity (Fig. 1d), individual experiments / CMA activity, mean (Fig. S2c, second panel) / CMA activity, mean (Fig. S2c, first panel) / CMA activity, mean (Fig. S2c, third panel): unit not given here; details: for CMA activity (Fig. 1e-g), mean: n = 4
# Experimental: as §1
# [4] = test system: primary human fibroblast expressing the KFERQ-PS-Dendra reporter; test: CMA activity, KFERQ-PS-Dendra reporter in primary human fibroblasts; format: cell-based; design: key to CMA activity, mean (Fig. S2c): puncta per cell
# Experimental: as §1
structure (smiles),measurement,setting,value
CC(=O)Nc1ccc(C2=Nc3ccc(Cl)cc3OC2)cc1 [CA77],duration of the increase in degradation of long-lived proteins,"[1]; NIH3T3, 10 μM",remained upregulated 24 h
same,"Lysosomal proteolysis, Mean (Fig. S3c)",[1]; Time 6,3.76
same,"Lysosomal proteolysis, Mean (Fig. S3c)",[1]; Time 12,7.75
same,"CMA activity, mean relative to concentration 0 = 1 (Fig. S2b)","[2]; 12+12w, concentration 0.2",0.9934
same,"CMA activity, mean relative to concentration 0 = 1 (Fig. S2b)","[2]; 12+12w, concentration 2",0.9832
same,"CMA activity, mean relative to concentration 0 = 1 (Fig. S2b)","[2]; 12+12w, concentration 5",2.103
same,"CMA activity, mean relative to concentration 0 = 1 (Fig. S2b)","[2]; 12+12w, concentration 10",2.605
same,"CMA activity, mean relative to concentration 0 = 1 (Fig. S2b)","[2]; 12+12w, concentration 20",4.196
same,"CMA activity, mean relative to concentration 0 = 1 (Fig. S2b)","[2]; 12+12w, concentration 30",3.752
same,"CMA activity, mean (Fig. S2a)","[2]; 12h, concentration 0.02",2.724
same,"CMA activity, mean (Fig. S2a)","[2]; 12h, concentration 0.2",4.16
same,"CMA activity, mean relative to concentration 0 = 1 (Fig. S2b)","[2]; 12h, concentration 0.2",0.9543
same,"CMA activity, mean (Fig. S2a)","[2]; 12h, concentration 2",4.326
same,"CMA activity, mean relative to concentration 0 = 1 (Fig. S2b)","[2]; 12h, concentration 2",0.9922
same,"CMA activity, mean (Fig. S2a)","[2]; 12h, concentration 5",6.6688
same,"CMA activity, mean relative to concentration 0 = 1 (Fig. S2b)","[2]; 12h, concentration 5",1.5297
same,"CMA activity, mean (Fig. S2a)","[2]; 12h, concentration 10",9.952
same,"CMA activity, mean relative to concentration 0 = 1 (Fig. S2b)","[2]; 12h, concentration 10",2.283
same,"CMA activity, mean (Fig. S2a)","[2]; 12h, concentration 20",10.0764
same,"CMA activity, mean relative to concentration 0 = 1 (Fig. S2b)","[2]; 12h, concentration 20",2.311
same,"CMA activity, mean (Fig. S2a)","[2]; 12h, concentration 30",18.9972
same,"CMA activity, mean (Fig. S2a)","[2]; 12h, concentration 40",10.5987
same,"CMA activity, mean (Fig. S2a)","[2]; 12h, concentration 50",9.368
same,"CMA activity, mean (Fig. S2a)","[2]; 12h, concentration 60",2.016
same,"CMA activity, mean (Fig. S2a)","[2]; 24h, concentration 0.02",2.2722
same,"CMA activity, mean (Fig. S2a)","[2]; 24h, concentration 0.2",4.676
same,"CMA activity, mean relative to concentration 0 = 1 (Fig. S2b)","[2]; 24h, concentration 0.2",0.9787
same,"CMA activity, mean (Fig. S2a)","[2]; 24h, concentration 2",4.697
same,"CMA activity, mean relative to concentration 0 = 1 (Fig. S2b)","[2]; 24h, concentration 2",0.9831
same,"CMA activity, mean (Fig. S2a)","[2]; 24h, concentration 5",13.5914
same,"CMA activity, mean relative to concentration 0 = 1 (Fig. S2b)","[2]; 24h, concentration 5",2.845
same,"CMA activity, mean (Fig. S2a)","[2]; 24h, concentration 10",13.8573
same,"CMA activity, mean relative to concentration 0 = 1 (Fig. S2b)","[2]; 24h, concentration 10",2.901
same,"CMA activity, mean (Fig. S2a)","[2]; 24h, concentration 20",21.7668
same,"CMA activity, mean relative to concentration 0 = 1 (Fig. S2b)","[2]; 24h, concentration 20",4.556
same,"CMA activity, mean (Fig. S2a)","[2]; 24h, concentration 30",18.5853
same,"CMA activity, mean relative to concentration 0 = 1 (Fig. S2b)","[2]; 24h, concentration 30",3.89
same,"CMA activity, mean (Fig. S2a)","[2]; 24h, concentration 40",10.9146
same,"CMA activity, mean (Fig. S2a)","[2]; 24h, concentration 50",9.363
same,"CMA activity, mean (Fig. S2a)","[2]; 24h, concentration 60",0.7571
same,CMA activation in neuron-related mouse cells,[2]; in words,efficiently activated CMA
same,"CMA activity (Fig. 1d), MEAN","[3]; 20 μM of each compound, n = 3 independent experiments",3.597
same,"CMA activity (Fig. 1d), individual experiments","[3]; 20 μM of each compound, single experiments",3.288 and 3.538 and 3.964
same,"CMA activity (Fig. 1e-g), mean","[3]; 12h, concentration 0.02 (unit not given)",6.451
same,"CMA activity (Fig. 1e-g), mean","[3]; 12h, concentration 0.2",6.218
same,"CMA activity (Fig. 1e-g), mean","[3]; 12h, concentration 2",6.38
same,"CMA activity (Fig. 1e-g), mean","[3]; 12h, concentration 5",31.6977
same,"CMA activity (Fig. 1e-g), mean","[3]; 12h, concentration 10",39.5886
same,"CMA activity (Fig. 1e-g), mean","[3]; 12h, concentration 20",52.9995
same,"CMA activity (Fig. 1e-g), mean","[3]; 12h, concentration 30",60.386
same,"CMA activity (Fig. 1e-g), mean","[3]; 12h, concentration 40",43.8824
same,"CMA activity (Fig. 1e-g), mean","[3]; 12h, concentration 50",33.4774
same,"CMA activity (Fig. 1e-g), mean","[3]; 24h, concentration 0.02",5.564
same,"CMA activity (Fig. 1e-g), mean","[3]; 24h, concentration 0.2",6.782
same,"CMA activity (Fig. 1e-g), mean","[3]; 24h, concentration 2",8.318
same,"CMA activity (Fig. 1e-g), mean","[3]; 24h, concentration 5",26.3626
same,"CMA activity (Fig. 1e-g), mean","[3]; 24h, concentration 10",39.2844
same,"CMA activity (Fig. 1e-g), mean","[3]; 24h, concentration 20",59.6703
same,"CMA activity (Fig. 1e-g), mean","[3]; 24h, concentration 30",82.4074
same,"CMA activity (Fig. 1e-g), mean","[3]; 24h, concentration 40",57.9474
same,"CMA activity (Fig. 1e-g), mean","[3]; 24h, concentration 50",59.2412
same,"CMA activity (Fig. 1h-j), mean, untreated (0) = 1","[3]; concentration 0.2, 12+12w (12 h, then 12 h after washing out)",0.8003
same,"CMA activity (Fig. 1h-j), mean, untreated (0) = 1","[3]; concentration 0.2, 12h",0.5989
same,"CMA activity (Fig. 1h-j), mean, untreated (0) = 1","[3]; concentration 0.2, 24h",0.8798
same,"CMA activity (Fig. 1h-j), mean, untreated (0) = 1","[3]; concentration 2, 12+12w",0.935
same,"CMA activity (Fig. 1h-j), mean, untreated (0) = 1","[3]; concentration 2, 12h",0.6146
same,"CMA activity (Fig. 1h-j), mean, untreated (0) = 1","[3]; concentration 2, 24h",1.079
same,"CMA activity (Fig. 1h-j), mean, untreated (0) = 1","[3]; concentration 5, 12+12w",4.471
same,"CMA activity (Fig. 1h-j), mean, untreated (0) = 1","[3]; concentration 5, 12h",3.053
same,"CMA activity (Fig. 1h-j), mean, untreated (0) = 1","[3]; concentration 5, 24h",3.42
same,"CMA activity (Fig. 1h-j), mean, untreated (0) = 1","[3]; concentration 10, 12+12w",4.902
same,"CMA activity (Fig. 1h-j), mean, untreated (0) = 1","[3]; concentration 10, 12h",3.813
same,"CMA activity (Fig. 1h-j), mean, untreated (0) = 1","[3]; concentration 10, 24h",5.096
same,"CMA activity (Fig. 1h-j), mean, untreated (0) = 1","[3]; concentration 20, 12+12w",5.399
same,"CMA activity (Fig. 1h-j), mean, untreated (0) = 1","[3]; concentration 20, 12h",5.105
same,"CMA activity (Fig. 1h-j), mean, untreated (0) = 1","[3]; concentration 20, 24h",7.74
same,"CMA activity (Fig. 1h-j), mean, untreated (0) = 1","[3]; concentration 30, 12+12w",7.708
same,"CMA activity (Fig. 1h-j), mean, untreated (0) = 1","[3]; concentration 30, 12h",5.817
same,"CMA activity (Fig. 1h-j), mean, untreated (0) = 1","[3]; concentration 30, 24h",10.6896
same,CMA activation compared with AR7,"[3]; fluorescent CMA reporter in mouse fibroblasts, basal and inducible CMA",> 40 % CMA of AR7
same,toxicity in cells,[3]; mouse fibroblasts,without noticeable toxicity
same,"CMA activity, mean (Fig. S2c)",[4]; concentration 0.02,27.1536
same,"CMA activity, mean (Fig. S2c)",[4]; concentration 0.2,22.1247
same,"CMA activity, mean (Fig. S2c)",[4]; concentration 2,23.6319
same,"CMA activity, mean (Fig. S2c)",[4]; concentration 5,30.8194
same,CMA activation in human cells,[4]; in words,efficiently activated CMA
